Where two headings read alike, the source gives them in different places.
Tests used:
[1] = target: benzodiazepine (BDZ-R) receptor; assay: 3H-Flunitrazepam binding to extensively washed bovine cerebral cortical membranes; conditions: read-out: Ki, inhibition of 3H-FNZ binding; bovine cerebral cortical membranes; 0.6 nM 3H-FNZ, 4° C., 60 min; n=3
Description: Non-specific nitration of the flavone nucleus yielded the two nitrated flavone (II) and (IIa). […] Briefly, ^3 H-FNZ binding was carried out as described by Levy de Stein, M., Medina, J. H., De Robertis E., Mol. Brain Res. 1985, 5, 9-15. In brief, for each assay, triplicate samples of the membranes, containing 0.2 to 0.4 mg protein were suspended in a final volume of 1 mL of 0.25 mM Tris-HCl buffer, pH 7.3. The incubation was carried out at 4° C. for 60 minutes with 0.6 nM ^3 -FNZ. To study the binding saturation, a range of 0.3 to 10 nM ^3 H-FNZ was used. Non-specific binding was determined in parallel incubations in the presence of 3 μM FNZ, and represented 5-15% of total. The assays were terminated by filtration under vacuum though Whatman GF/A glass-fiber filters, and three washes with 3 mL each of incubation medium. Filters were dried and counted after the addition of 5 mL of 2,5-diphenyloxazole/xylene as scintillation fluid. Bovine cerebral cortical membranes were treated substantially following the method of Medina, J. H., De Robertis, E. J., J. Neurochem. 1985, 44, 1340-1345.

[2] = target: central benzodiazepine receptors (BDZ-Rs); assay: 3H-FNZ binding to rat brain synaptosomal membranes (Section 3)
Description: In brief, for each assay, triplicate samples of the membranes, containing 0.2 to 0.4 mg protein were suspended in a final volume of 1 mL of 0.25 mM Tris--HCl buffer, pH 7.3. The incubation was carried out at 4° C. for 60 min with 0.6 nM ^3 H--FNZ. to study the binding saturation, a range of 0.3 to 10 nM ^3 H--FNZ was used. […] The assays were terminated by filtration under vacuum through Whatman GF/A glass-fiber filters, and three washes with 3 mL each of incubation medium. Filters were dried and counted after the addition of 5 mL of 2,5-diphenyloxazole/xylene as scintillation fluid.
The binding of ^3 H--FNZ was carried out as for (i) above.

[3] = target: central benzodiazepine receptor; assay: [3H]-FNZ binding to crude synaptosomal membranes from rat CNS regions; parameters: species or system rat (Wistar)
Description: (§1) Adult male Wistar rats weighing 250 g were used for biochemical experiments. Adult male Swiss male weighing 25-30 g were used for pharmacological assays except for inhibitory avoidance and tail flick tests were done in rats. Animals were housed in a controlled environment, with free access to food and water and maintained on a 12 h/12 h day/night cycle.
Displacement curves were performed using [^3 ]-FNZ or [^3 H]-zolpidem ([^3 H]-ZOLP) as radioligands in washed crude synaptosomal membranes from rat cerebral cortex, cerebellum, hippocampus, striatum or spinal cord. Membrane preparations were carried out according to Medina et al. (1990). Briefly, brains were rapidly dissected out on ice and the different structures were homogenized in 10 volumes of 0.32 M sucrose and centrifuged at 900×g for 10 min. The resulting supernatant was centrifuged at 100,000×g for 30 min and the pellet washed twice in 25 mM Tris HCl buffer pH 7.4 at 100,000×g for 30 min, and stored at -20° C. until used.
For [^3 H]-FNZ (84 Ci/mmol, NEN) displacement curves, different concentrations of DNF (0.3 nM to 1 μM) were added to 0.3 mg membrane protein suspended in 1 ml of 25 mM Tris HCl buffer in presence of 0.6 nM of the radioligand. Protein determination was carried out by using the method of Lowry et al. (1951). Nonspecific binding (<5%) was determined in parallel incubations with 10 μM FNZ (Hoffmann-La Roche). The incubation was carried out at 4° C. for 2 h. The assays were determined by filtration under vacuum through Whatman GF/A glass fiber filters, and two washes with 3 ml each of incubation medium. Filters were dried and counted after the addition of 5 ml 2,5-diphenyl-oxazole (PPO)-xylene as scintillation fluid.

serotonin 1A receptors = assay: 3H-8-OH-DPAT binding, compound (IV); conditions: 10 μM
[4] = test system: cholinergic-muscarinic receptors; format: binding; conditions: 10 μM
AMPA-glutamate receptors = assay: 3H-AMPA binding, compound (IV); conditions: 10 μM
GABAA receptors = assay: 3H-muscimol binding, compound (IV); conditions: 10 μM
mice [5] = assay: Elevated plus-maze, compound (IV); format: in vivo, male Swiss mice; conditions: i.p., 0.1 mg/kg, preliminary
Description: The animals used in the pharmacological test were male Swiss mice from our breeding stock, weighting 28-35 g. They were placed in groups of ten with free access to water and food, and maintained on 12 h/12 h day/night cycle. The elevated plus-maze set-up consisted of a maze of two open arms, 25×5 cm, crossed by two closed arms of the same dimensions, with free access to all arms from the crossing point. The closed arms had walls 35 cm high all around. The maze was suspended 50 cm from the room floor. Mice were placed on the central part of the cross facing an open arm. The number of entries and the time spend going into open and closed arms were counted during 5 min. A selective increase in the parameters corresponding to open arms revels an anxiolytic effect. The total exploratory activity (number of entries in both arms) was also determined according to the method of Pellow, S. J. et al. Neurosci. Meth. 1986, 14, 149; Lister, R. G. Psychopharmacology 1987, 92, 180).

mice [6] = assay: Elevated plus-maze test in mice (Section 1, incl. Table 1); format: in vivo, male Swiss mice; conditions: Mus musculus, ip, read-out: minimum dose necessary to produce similar anxiolytic effects
Description: Performance of mice on the elevated plus-maze test was used to measure anxiolytic actions in rodents, following i.p. administration of vehicle or compound (II).
The animals used in the pharmacological test were male Swiss mice from breeding stock, weighing 28-35 g. They were placed n groups of ten with free access to water and food, and maintained on 12 h/12 h day/night cycle. In all the tests the mice were i.p. injected with VEH or a solution of the drug, 15 minutes before the assay.
The elevated plus-maze set-up consisted of a maze of two open arms, 25×5 cm, crossed by two closed arms of the same dimensions, with free access to all arms from the crossing point. The closed arms had walls 35 cm high all around. The maze was suspended 50 cm from the room floor. Mice were placed on the central part of the cross facing an open arm. The number of entries and the time spent going into open and closed arms were counted during 5 minutes. […] The total exploratory activity (number of entries in both arms) was also determined.

mice [7] = assay: Pentylenetetrazole (PTZ)-induced seizures; format: in vivo
Description: The effects of DNF on pentylenetetrazole (PTZ)--induced convulsions were evaluated according to Medina et al., (1990) with slight modifications. PTZ (200 mg/kg) was administered i.p. to mice 15 min after injection of drug or vehicle. The number of mice presenting clonic convulsions was determined.
Data are expressed as the percentage of mice presenting clonic or tonic-clonic seizures. ^3 number of animals per group.

mice [8] = assay: Elevated plus maze test in mice (Section 2); format: in vivo, male Swiss mice; conditions: mice
Description: as §1
An Opto-varimex® apparatus was used according to Viola et al. (1994). The apparatus discriminates between total and ambulatory activities. An increase in the number of transitions through the beams reflects augmented locomotor activity. In this and all following tests in mice, animals were i.p. injected with the vehicle, or with DNF 20 min before the beginning of the tests. In each session, control mice were tested in parallel with those animals receiving drug treatment.
The test was performed in the same session immediately after the locomotor activity measurement (Viola et al., 1994; Wolfman et al., 1994). […] A series of experiments with the injection of the selective central benzodiazepine receptor antagonist Ro 15-1788 (File and Pellow, 1986) was also carried out.

mice [9] = assay: Horizontal wire test in mice; format: in vivo, male Swiss mice; conditions: mice, i.p.
Description: as §1
This test was carried out as previously described (Viola et al., 1994; Wolfman et al., 1994; Viola et al., 1995). The test took place after two trials, performed at 5 min intervals. A myorelaxant drug will impair mice to grasp the wire (Bonetti et al., 1982). The effect of DNF )1 mg/kg) on DZ-induced myorelaxation was also determined.

mice [10] = assay: Holeboard test in mice; format: in vivo, male Swiss mice; conditions: mice, 1 mg/kg; vehicle=8.5±1.2, p<0.001
Description: as §1
The test was performed according to Viola et al. (1994) and Wolfman et al. (1994). The number of head dips and the time spent head dipping were counted during 5 min.

[11] = rat cerebral cortex, read-out: Ki, 3H-FNZ binding

O=c1cc(-c2ccc([N+](=O)[O-])cc2)oc2ccc([N+](=O)[O-])cc12 [(IIa), 6,4'-Dinitroflavone]
Ki [1]: 17000 ± 5000 nM

O=c1cc(-c2cccc([N+](=O)[O-])c2)oc2ccc(F)cc12 [(IX), 6-Fluoro-3'-nitroflavone]
Ki [2, 11]: 170 nM

O=c1cc(-c2cccc([N+](=O)[O-])c2)oc2ccccc12 [(VI), 3'-nitroflavone]
Ki [2, 11]: 250 nM

O=c1cc(-c2cccc([N+](=O)[O-])c2)oc2ccc(Cl)cc12 [(VIII), 6-Chloro-3'-nitroflavone]
Ki [2, 11]: 8 nM

Cc1nnc2ccc(-c3cccc(C(F)(F)F)c3)nn12 [CL 218,872, reference compound]
Ki ([3]; cortical membranes, high affinity site, read-out: high affinity Ki value): 10 nM | Ki ([3]; cortical membranes, low affinity site, read-out: low affinity Ki value): 1200 nM

O=c1cc(-c2ccccc2[N+](=O)[O-])oc2ccc(Br)cc12 [Compound (III), 6-bromo-2'-nitroflavone]
Ki [2, 11]: 208 nM

O=c1cc(-c2cccc([N+](=O)[O-])c2)oc2ccc(Br)cc12 [Compound (IV), 6-bromo-3'-nitroflavone]
displacement of 3H-8-OH-DPAT binding (serotonin 1A receptors): does not displace | displacement of 3H-QNB binding [4]: does not displace | displacement of 3H-AMPA binding (AMPA-glutamate receptors): does not displace | Ki ([2]; cerebellum, n=4, read-out: Ki SEM, 3H-FNZ binding): 3.6 ± 0.1 nM | Ki ([2]; cerebral cortex, first (high affinity) population of sites, n=6, read-out: Ki SEM, 3H-FNZ binding): 1.2 nM | Ki ([2]; cerebral cortex, second population of sites, n=6, read-out: Ki SEM, 3H-FNZ binding): 15.5 nM | Scatchard analysis of 3H-FNZ saturation curves ([2]; cerebral cortical membranes, data not shown): competitive ligand for the BDZ-R | Ki ([2]; hippocampus, n=2, read-out: Ki SEM, 3H-FNZ binding): 9.6 ± 0.6 nM | Ki [2, 11]: 220 ± 1 nM | affinity in spinal cord vs highest value in cerebral cortex ([2]; ratio): 10 times lower | potency for displacement of 3H-FNZ, type II BDZ-R regions vs cerebellum ([2]; ratio): 3-4 times lower | Ki ([2]; spinal cord, n=3, read-out: Ki SEM, 3H-FNZ binding): 12.7 ± 0.5 nM | Ki ([2]; striatum, n=3, read-out: Ki SEM, 3H-FNZ binding): 9.8 ± 1.6 nM | displacement of [3H]-muscimol binding (GABAA receptors): does not displace | percentage of entries in the open arms (mice [5]): increasing both the percentage of entries in the open arms | time spent in the open arms (mice [5]): increasing both the percentage of entries in the open arms and the time spent in these arms

O=c1cc(-c2ccc([N+](=O)[O-])cc2)oc2ccc(Br)cc12 [Compound (V), 6-bromo-4'-nitroflavone]
Ki [2, 11]: 220 nM

CN1C(=O)CN=C(c2ccccc2)c2cc(Cl)ccc21 [Diazepam, reference compound]
minimal effective dose (mice [6]): 0.03 mg/kg | % of convulsing mice (mice [7]; DZ 0.3 mg/kg, n=6, p<0.001 (VEH + PTZ 96)): 33.3% | % of convulsing mice (mice [7]; DZ 1.0 mg/kg, n=12, p<0.001): 42% | % of convulsing mice (mice [7]; DZ 3.0 mg/kg, n=9, p<0.001): 0% | anticonvulsant activity vs PTZ (mice [7]; mice, 0.3-3 mg/kg, p<0.001, PTZ 200 mg/kg): showed anticonvulsant activity | Ki ([3]; all the brain regions studied, read-out: Ki, [3H]-FNZ binding): ~7 nM | dose needed to increase open arm entries relative to DNF (mice [8]): 10-100 times higher | percentage of open arm entries (mice [8]; 0.3 mg/kg, vehicle=22.9±2.0%, p<0.05): 35.0±4.5% | myorelaxant effect (mice [9]; 1 mg/kg): marked myorelaxant effect | animals showing myorelaxant effect (mice [9]; DZ 1 mg/kg): 8 animals out of 10 | head dips (mice [10]): 1.2±0.5

— patent publication US6080780A, “Use of nitroflavonoids for the treatment of anxiety” (University of Strathclyde, priority 1995, dated 2000)
